Measurements taken from ChEMBL document CHEMBL5291721, “A preclinical secondary pharmacology resource illuminates target-adverse drug reaction associations of marketed drugs” (Nat Commun, 2023).
*1 amine or outer side, *2 acyl side, *3 side chain or, on linkers, in order; H or OH if unused. Where a SMILES comes first, the peptide text is derived from it. Bridges are numbered along the chain shown (N, C = ends). [ ]: non-standard residue; d: D form. The star is where a group is joined. hTyr(3S-OH,4S-OH,3'-OSO3H) = N[C@H](C(=O)O)[C@H](O)[C@@H](O)c1ccc(O)c(OS(=O)(=O)O)c1; Orn(4R-OH,5R-OH) = O=C([C@H](C[C@@H](O)[C@@H](O)N[*:3])N[*:1])[*:2]; Pro(3S-OH,4S-Me) = C[C@H]1CN[C@H](C(=O)O)[C@H]1O; X1 = CCCCCOc1ccc(-c2cc(-c3ccc(C(=O)*)cc3)no2)cc1; Gln(3R-OH) = NC(=O)C[C@@H](O)[C@H](N)C(=O)O; Hyp = O=C(O)[C@@H]1C[C@@H](O)CN1

Experiments:
Androgen receptor = target: T1, Androgen receptor (Homo sapiens, UniProt P10275)
T1 sequence (P10275 whole entry): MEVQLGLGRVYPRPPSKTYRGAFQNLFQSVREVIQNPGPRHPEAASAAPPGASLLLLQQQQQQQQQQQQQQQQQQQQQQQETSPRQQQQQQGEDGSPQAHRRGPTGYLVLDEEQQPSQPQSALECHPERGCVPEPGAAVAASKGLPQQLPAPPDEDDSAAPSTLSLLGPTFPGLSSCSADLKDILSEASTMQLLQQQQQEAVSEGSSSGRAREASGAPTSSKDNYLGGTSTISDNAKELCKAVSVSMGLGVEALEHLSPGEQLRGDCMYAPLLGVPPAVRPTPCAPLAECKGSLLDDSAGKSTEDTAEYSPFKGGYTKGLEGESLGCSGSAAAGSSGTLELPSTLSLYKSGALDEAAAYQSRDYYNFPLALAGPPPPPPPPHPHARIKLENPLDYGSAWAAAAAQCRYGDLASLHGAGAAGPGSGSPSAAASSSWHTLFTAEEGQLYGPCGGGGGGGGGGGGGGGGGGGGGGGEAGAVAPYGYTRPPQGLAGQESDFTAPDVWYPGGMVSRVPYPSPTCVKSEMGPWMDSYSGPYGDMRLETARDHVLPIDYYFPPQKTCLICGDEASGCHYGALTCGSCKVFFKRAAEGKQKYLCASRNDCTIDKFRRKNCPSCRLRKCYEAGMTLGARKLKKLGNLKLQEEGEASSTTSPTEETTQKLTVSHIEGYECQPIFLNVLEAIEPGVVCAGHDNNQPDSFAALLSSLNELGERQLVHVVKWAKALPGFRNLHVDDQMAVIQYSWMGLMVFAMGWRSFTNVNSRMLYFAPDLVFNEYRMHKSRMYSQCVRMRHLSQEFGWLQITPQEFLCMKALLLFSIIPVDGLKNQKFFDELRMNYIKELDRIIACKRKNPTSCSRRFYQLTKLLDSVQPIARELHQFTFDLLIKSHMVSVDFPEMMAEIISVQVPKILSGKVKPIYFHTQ

Progesterone receptor = target: T2, Progesterone receptor (Homo sapiens, UniProt P06401)
T2 sequence (P06401 whole entry): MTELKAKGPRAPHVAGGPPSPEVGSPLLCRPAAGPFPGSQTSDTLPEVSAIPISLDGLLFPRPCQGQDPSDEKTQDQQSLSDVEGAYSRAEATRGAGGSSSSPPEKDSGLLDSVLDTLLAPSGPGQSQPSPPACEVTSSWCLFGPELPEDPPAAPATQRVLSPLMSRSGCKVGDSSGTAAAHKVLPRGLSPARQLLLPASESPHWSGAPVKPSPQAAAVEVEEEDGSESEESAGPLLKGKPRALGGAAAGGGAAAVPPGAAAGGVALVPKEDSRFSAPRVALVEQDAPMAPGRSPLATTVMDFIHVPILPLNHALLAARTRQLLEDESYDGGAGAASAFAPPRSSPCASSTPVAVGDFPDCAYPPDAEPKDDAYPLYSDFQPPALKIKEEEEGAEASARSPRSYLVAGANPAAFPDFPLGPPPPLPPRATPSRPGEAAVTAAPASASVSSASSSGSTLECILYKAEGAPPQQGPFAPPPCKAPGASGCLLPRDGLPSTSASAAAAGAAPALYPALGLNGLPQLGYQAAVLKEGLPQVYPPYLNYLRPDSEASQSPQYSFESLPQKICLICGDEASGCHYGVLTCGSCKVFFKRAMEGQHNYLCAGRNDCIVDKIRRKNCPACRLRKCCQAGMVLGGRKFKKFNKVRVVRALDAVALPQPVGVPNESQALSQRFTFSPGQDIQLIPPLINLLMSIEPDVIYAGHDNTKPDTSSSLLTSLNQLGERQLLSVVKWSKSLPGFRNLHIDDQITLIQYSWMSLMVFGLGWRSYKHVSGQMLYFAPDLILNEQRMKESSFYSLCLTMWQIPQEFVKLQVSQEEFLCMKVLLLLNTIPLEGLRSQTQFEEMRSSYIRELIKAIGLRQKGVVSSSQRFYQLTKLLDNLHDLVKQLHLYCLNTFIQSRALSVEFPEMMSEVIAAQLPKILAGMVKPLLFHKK

Vasopressin V1a receptor = Vasopressin V1a receptor (Homo sapiens, UniProt P37288)
Vasopressin V1a receptor, sequence (P37288 whole entry): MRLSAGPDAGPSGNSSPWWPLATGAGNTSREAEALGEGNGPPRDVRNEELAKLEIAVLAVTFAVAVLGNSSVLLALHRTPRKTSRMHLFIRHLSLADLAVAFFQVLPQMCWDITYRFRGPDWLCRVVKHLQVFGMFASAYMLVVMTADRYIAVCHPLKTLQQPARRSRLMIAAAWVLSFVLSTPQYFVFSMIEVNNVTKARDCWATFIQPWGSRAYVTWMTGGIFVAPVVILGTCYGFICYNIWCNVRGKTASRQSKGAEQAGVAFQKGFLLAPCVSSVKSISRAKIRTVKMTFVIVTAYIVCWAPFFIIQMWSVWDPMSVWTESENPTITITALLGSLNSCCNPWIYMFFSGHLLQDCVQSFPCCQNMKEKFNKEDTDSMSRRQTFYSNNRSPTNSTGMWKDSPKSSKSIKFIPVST

[1] = target: Neuronal acetylcholine receptor subunit alpha-4 (Homo sapiens, UniProt P43681)
Neuronal acetylcholine receptor subunit alpha-4, sequence (P43681 whole entry): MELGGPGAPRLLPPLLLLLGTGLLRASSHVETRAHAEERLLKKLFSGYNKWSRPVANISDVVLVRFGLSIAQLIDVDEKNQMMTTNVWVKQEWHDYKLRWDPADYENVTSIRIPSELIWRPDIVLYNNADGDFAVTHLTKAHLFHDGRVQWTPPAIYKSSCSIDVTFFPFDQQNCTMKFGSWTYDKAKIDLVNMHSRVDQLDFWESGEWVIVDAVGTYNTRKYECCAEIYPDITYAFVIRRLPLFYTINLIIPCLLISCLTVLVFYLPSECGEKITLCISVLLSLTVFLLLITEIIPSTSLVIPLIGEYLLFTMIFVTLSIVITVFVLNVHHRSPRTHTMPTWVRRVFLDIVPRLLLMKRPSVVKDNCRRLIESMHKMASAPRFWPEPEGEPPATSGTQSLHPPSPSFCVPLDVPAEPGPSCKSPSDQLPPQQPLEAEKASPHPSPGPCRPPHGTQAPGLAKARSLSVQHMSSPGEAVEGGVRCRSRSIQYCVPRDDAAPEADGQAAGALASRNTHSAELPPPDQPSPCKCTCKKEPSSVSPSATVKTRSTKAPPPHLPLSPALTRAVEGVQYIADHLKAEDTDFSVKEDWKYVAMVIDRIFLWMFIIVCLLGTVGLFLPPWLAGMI

D(1A) dopamine receptor = D(1A) dopamine receptor (Homo sapiens, UniProt P21728); assay type: functional, cell-based
D(1A) dopamine receptor, sequence (P21728 whole entry): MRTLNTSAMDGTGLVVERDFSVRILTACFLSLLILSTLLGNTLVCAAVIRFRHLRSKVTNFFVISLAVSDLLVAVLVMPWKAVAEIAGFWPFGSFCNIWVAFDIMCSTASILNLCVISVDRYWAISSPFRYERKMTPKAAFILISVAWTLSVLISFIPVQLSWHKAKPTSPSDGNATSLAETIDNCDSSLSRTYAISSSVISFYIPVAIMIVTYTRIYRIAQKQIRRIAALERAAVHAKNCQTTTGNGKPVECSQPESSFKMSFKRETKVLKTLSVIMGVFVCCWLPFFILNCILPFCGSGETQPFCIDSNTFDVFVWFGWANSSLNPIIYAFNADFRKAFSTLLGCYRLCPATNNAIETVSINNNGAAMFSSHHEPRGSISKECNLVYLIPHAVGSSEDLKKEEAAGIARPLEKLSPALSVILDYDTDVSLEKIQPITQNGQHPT

[2] = target: T3, Prostaglandin G/H synthase 1 (Rattus norvegicus, UniProt Q63921); assay type: functional
T3 sequence (Q63921 whole entry): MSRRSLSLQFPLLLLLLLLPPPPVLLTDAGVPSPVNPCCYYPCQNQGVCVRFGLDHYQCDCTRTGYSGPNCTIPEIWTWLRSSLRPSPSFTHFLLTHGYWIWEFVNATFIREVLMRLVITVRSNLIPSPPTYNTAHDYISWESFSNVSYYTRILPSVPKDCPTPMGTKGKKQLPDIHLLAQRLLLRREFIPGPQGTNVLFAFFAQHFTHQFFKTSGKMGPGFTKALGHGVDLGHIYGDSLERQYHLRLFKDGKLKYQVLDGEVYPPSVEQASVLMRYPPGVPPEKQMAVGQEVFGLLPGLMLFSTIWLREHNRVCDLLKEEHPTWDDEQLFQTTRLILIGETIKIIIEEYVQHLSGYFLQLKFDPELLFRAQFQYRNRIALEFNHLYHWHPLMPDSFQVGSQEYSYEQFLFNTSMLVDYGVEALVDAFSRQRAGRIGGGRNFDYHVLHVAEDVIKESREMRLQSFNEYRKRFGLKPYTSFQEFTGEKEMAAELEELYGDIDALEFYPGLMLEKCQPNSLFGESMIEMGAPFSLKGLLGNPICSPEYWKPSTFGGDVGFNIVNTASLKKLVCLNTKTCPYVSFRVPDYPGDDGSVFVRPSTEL
Further: assay procedure not described here.

Structure (SMILES) | AC50 (Androgen receptor) | AC50 (Progesterone receptor) | AC50 (Vasopressin V1a receptor) | AC50 [1] | AC50 (D(1A) dopamine receptor) | AC50 [2]
COc1nccnc1NS(=O)(=O)c1ccc(N)cc1 | > 30 µM |  |  |  |  | 
NC(=O)c1nc(F)c[nH]c1=O | > 30 µM | > 30 µM |  |  |  | 
CN(C)CCCN1C(=O)c2cc([N+](=O)[O-])ccc2Oc2ccccc21 | > 30 µM | > 30 µM |  |  |  | 
O=C(O)COc1nn(Cc2ccccc2)c2ccccc12 [BENDAZAC] | > 30 µM | > 30 µM |  |  |  | 
Cc1ccc([C@@H]2O[C@H](CO)[C@@H](O)[C@H](O)[C@H]2O)cc1Cc1ccc(-c2ccc(F)cc2)s1 [CANAGLIFLOZIN ANHYDROUS] | > 30 µM | > 30 µM |  |  |  | 
CN(CC(=O)O)C(=N)N [CREATINE] | > 30 µM | > 30 µM |  |  |  | 
N[C@@H](CSSC[C@H](N)C(=O)O)C(=O)O [CYSTINE] | > 30 µM | > 30 µM |  |  |  | 
C#Cc1cccc(Nc2ncnc3cc(OCCOC)c(OCCOC)cc23)c1 [ERLOTINIB] |  | > 30 µM | > 30 µM | > 30 µM | > 30 µM | > 30 µM
CCC(=O)O[C@@H](O[P@](=O)(CCCCc1ccccc1)CC(=O)N1C[C@H](C2CCCCC2)C[C@H]1C(=O)O)C(C)C [FOSINOPRIL] |  | > 30 µM |  |  | > 30 µM | 
CC(C)(N)C(=O)N[C@H](Cc1c[nH]c2ccccc12)C(=O)N[C@H](Cc1c[nH]c2ccccc12)NC=O [MACIMORELIN] | > 30 µM | > 30 µM |  |  |  | 
C=C1c2c(Cl)ccc(O)c2C(=O)C2=C(O)[C@]3(O)C(=O)C(C(N)=O)=C(O)[C@@H](N(C)C)[C@@H]3[C@@H](O)[C@H]12 [MECLOCYCLINE] | > 30 µM | > 30 µM |  |  |  | 
Cc1cc2c(OCC(O)CNC(C)C)cccc2[nH]1 (configuration not stated) [MEPINDOLOL] | > 30 µM | > 30 µM |  |  |  | 
CC(=O)/N=c1/sc(S(N)(=O)=O)nn1C [METHAZOLAMIDE] |  | > 30 µM | > 10 µM | > 10 µM | > 10 µM | > 10 µM
CCCCCOc1ccc(-c2cc(-c3ccc(C(=O)N[C@H]4C[C@@H](O)[C@@H](O)NC(=O)[C@@H]5[C@@H](O)[C@@H](C)CN5C(=O)[C@H]([C@H](O)CC(N)=O)NC(=O)[C@H]([C@H](O)[C@@H](O)c5ccc(O)c(OS(=O)(=O)O)c5)NC(=O)[C@@H]5C[C@@H](O)CN5C(=O)[C@H]([C@@H](C)O)NC4=O)cc3)no2)cc1 [MICAFUNGIN] (X1-[Orn(4R-OH,5R-OH)]T[Hyp][hTyr(3S-OH,4S-OH,3'-OSO3H)][Gln(3R-OH)][Pro(3S-OH,4S-Me)]; lactam 1-C) | > 30 µM | 3.87 µM |  |  |  | 
CCOc1ccc2ccccc2c1C(=O)N[C@@H]1C(=O)N2[C@@H]1SC(C)(C)[C@@H]2C(=O)O [NAFCILLIN] | > 30 µM | > 30 µM |  |  |  | 
CC(=O)Oc1ccccc1C(=O)Nc1ncc([N+](=O)[O-])s1 [NITAZOXANIDE] |  | > 30 µM | 17 µM | 8.8 µM | > 30 µM | 0.0031 µM
CN(C)c1cc(CNCC(C)(C)C)c(O)c2c1C[C@H]1C[C@H]3[C@H](N(C)C)C(O)=C(C(N)=O)C(=O)[C@@]3(O)C(O)=C1C2=O [OMADACYCLINE] | > 30 µM | > 30 µM | > 30 µM | > 30 µM | > 30 µM | 0.645 µM

Structure (SMILES) | AC50 (Androgen receptor) | AC50 (Progesterone receptor) | AC50 (Vasopressin V1a receptor) | AC50 [1] | AC50 (D(1A) dopamine receptor) | AC50 [2]
CCCCCCCCCCC[C@@H](C[C@@H]1OC(=O)[C@H]1CCCCCC)OC(=O)[C@H](CC(C)C)NC=O [ORLISTAT] |  | > 30 µM |  |  |  | 
O=C1[C@H]2CCCC[C@H]2C(=O)N1CCCCN1CCN(c2nsc3ccccc23)CC1 [PEROSPIRONE] |  | > 30 µM |  |  |  | 
CN(C)CCC(c1ccccc1)c1ccccn1 (configuration not stated) [PHENIRAMINE] |  | > 30 µM |  |  |  | 
CNC[C@H](O)c1cccc(O)c1 [PHENYLEPHRINE] |  | > 30 µM | > 10 µM | > 10 µM | 3.13 µM | > 30 µM
CC(C)COc1ccc(CNC(=O)N(Cc2ccc(F)cc2)C2CCN(C)CC2)cc1 [PIMAVANSERIN] | > 30 µM | > 30 µM |  |  |  | 
CC(C)[N+](C)(CCOC(=O)C1c2ccccc2Oc2ccccc21)C(C)C [PROPANTHELINE] | > 30 µM | > 30 µM |  |  |  | 
CNC(=O)c1cc(Oc2ccc(NC(=O)Nc3ccc(Cl)c(C(F)(F)F)c3)c(F)c2)ccn1 [REGORAFENIB] | > 30 µM | > 3 µM |  | > 30 µM | > 30 µM | > 30 µM
CN(C)C(=O)c1nc(CNC(=O)CN)n(-c2ccc(Cl)cc2C(=O)c2ccccc2Cl)n1 [RILMAZAFONE] | > 30 µM | > 30 µM |  |  |  | 
NC(=O)NS(=O)(=O)c1ccc(N)cc1 [SULFACARBAMIDE] |  | > 30 µM |  |  |  | 
CCCCCCCCNC(C)C(O)c1ccc(SC(C)C)cc1 (configuration not stated) [SULOCTIDIL] | > 30 µM | > 30 µM |  |  |  | 
CCCCNc1ccc(C(=O)OCCN(C)C)cc1 [TETRACAINE] |  | > 30 µM | > 10 µM | > 10 µM | > 10 µM | > 30 µM
Cn1c(=O)c2[nH]cnc2n(C)c1=O [THEOPHYLLINE] |  | > 30 µM | > 30 µM | > 10 µM | > 10 µM | > 30 µM
CN1CCN(CCCN2c3ccccc3Sc3ccc(S(=O)(=O)N(C)C)cc32)CC1 [THIOPROPERAZINE] |  | > 30 µM |  |  | > 30 µM | 
CC1(C)O[C@@H]2[C@@H](CO[C@@]3(COS(N)(=O)=O)OC(C)(C)O[C@@H]23)O1 [TOPIRAMATE] |  | > 30 µM | > 10 µM | > 10 µM | > 10 µM | > 30 µM
NCCc1ccc(O)cc1 [TYRAMINE] |  | > 30 µM |  |  |  | 
CCCCCCCCCCCCCCCC(=O)OC/C=C(C)/C=C/C=C(C)/C=C/C1=C(C)CCCC1(C)C [VITAMIN A PALMITATE] |  | > 30 µM |  |  |  | 
